Assays:
[1] = target: T1, α1, β3, γ2 GABA A receptor (Homo sapiens, UniProt P14867+P18507); experiment: FLIPR functional assay, α1 GABAA receptor subtype in HEK-293 cells; assay type: cell-based
T1 construct: host or cells: HEK-293, stably transfected
From the text: (§1) The FLIPR functional assay is used to determine the EC50 at the α1 and α3 GABAA receptor subtypes. A high EC50 for the α1 subtype would indicate a low chance of adverse effects, including sedation, ataxia, and muscle relaxation. A low α3 EC50 would indicate potential effectiveness as an anxiolytic, antihyperalgesic, and likely an anticonvulsant. See, for example, Liu et al. (Assay. Drug. Dev. Technol. 2008, 6, 781-6) and Joesch et al. (J. Biomol. Screen. 2008, 13, 218-28).
(§2) Compounds tested were synthesized internally and solubilized in DMSO at a 10 mM concentration. GABA was purchase from Sigma (#A2129) and prepared at 100 mM in water.
(§3) HEK-293 cells were stably transfected with the α1, β3, γ2 GABA A receptor subunits (GenBank accession numbers NM_000806.3, NM_000814.5, and NM_198904.1, respectively) or α3, β3, γ2 (NM_000808 for α3) where obtained from ChanTest Co. (Catalog # CT6216 and CT6218, respectively).
(§4) Cells were cultivated in Dulbeco's Modified Eagle's Medium (DMEM, Sigma D5796) supplemented with 10% Fetal Bovine Serum (FBS, Gibco 16000), 0.5 mg/mL Geneticin (Gibco), 0.04 mg/mL Hygromycin B (Gibco), 0.1 mg/mL Zeocin (Gibco) and 20 mM HEPES (Sigma). Cells were grown at 37° C. in a humidified atmosphere of 5% CO2. In the experiments described here frozen cells were used. For this purpose, cells were gown and maintained under confluency during 2-3 weeks and then frozen down at different cell densities using Recovery™ Cell Culture Freezing Medium (Gibco).
(§5) 18 hours prior to the experiment, cells were quickly thawed at 37° C. and seeded on Poly-D-Lys 384 plates (Corning 356663) at a density of 25,000 cells/well and in 25 μL of complete cell medium as described above.
(§6) Membrane potential changes induced by the flux of ions through the receptor were measured as relative fluorescence units (RFU) using the Fluorometric Imaging Plate Reader (FLIPR Tetra®, Molecular Devices) and the FLIPR Membrane Potential Blue Assay kit (Molecular Devices). Prior to the addition of the compounds the medium was removed and cells were loaded with 20 μL of dye prepared in assay buffer composed of Hank's Balanced Salt Solution (HBSS with Ca^+2 and Mg^+2; Gibco 14025) with 20 mM Hepes. After 1 hour of incubation at room temperature (RT), the plate was placed into the FLIPR instrument and experiments were run adding first 10 μL from the 1st addition plate (compound plate) and after a 3 minutes incubation adding 20 μL of the 2nd addition or agonist plate. The response to this last GABA addition was monitored for another 3 minutes. […]
(§7) Data Analysis. The difference between the maximum and the minimum (Max-Min) fluorescence reached during the first addition or read interval and the second read interval were used for data analysis (agonist and potentiation, respectively). […]

[2] = target: T2, α3, β3, γ2 GABA A receptor (Homo sapiens, UniProt P18507+P34903); experiment: FLIPR functional assay, α3 GABAA receptor subtype in HEK-293 cells; assay type: cell-based; settings: α3 Binding EC50, FLIPR membrane potential, potentiation of GABA EC20
T2 construct: host or cells: HEK-293, stably transfected
T2 sequence (P34903 29-492): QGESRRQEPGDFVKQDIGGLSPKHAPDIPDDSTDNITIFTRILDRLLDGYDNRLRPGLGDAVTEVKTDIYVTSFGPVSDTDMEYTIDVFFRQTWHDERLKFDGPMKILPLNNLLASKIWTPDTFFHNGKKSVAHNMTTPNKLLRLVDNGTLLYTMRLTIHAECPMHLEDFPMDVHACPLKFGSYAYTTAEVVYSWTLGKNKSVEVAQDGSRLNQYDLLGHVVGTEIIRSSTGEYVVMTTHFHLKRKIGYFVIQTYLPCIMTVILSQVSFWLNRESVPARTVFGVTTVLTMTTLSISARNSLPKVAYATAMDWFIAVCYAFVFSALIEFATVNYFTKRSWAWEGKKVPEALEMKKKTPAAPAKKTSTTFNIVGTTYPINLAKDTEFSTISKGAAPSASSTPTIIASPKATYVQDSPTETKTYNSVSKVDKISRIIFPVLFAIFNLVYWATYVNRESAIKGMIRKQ
T2 sequence (P28472 26-473 partner): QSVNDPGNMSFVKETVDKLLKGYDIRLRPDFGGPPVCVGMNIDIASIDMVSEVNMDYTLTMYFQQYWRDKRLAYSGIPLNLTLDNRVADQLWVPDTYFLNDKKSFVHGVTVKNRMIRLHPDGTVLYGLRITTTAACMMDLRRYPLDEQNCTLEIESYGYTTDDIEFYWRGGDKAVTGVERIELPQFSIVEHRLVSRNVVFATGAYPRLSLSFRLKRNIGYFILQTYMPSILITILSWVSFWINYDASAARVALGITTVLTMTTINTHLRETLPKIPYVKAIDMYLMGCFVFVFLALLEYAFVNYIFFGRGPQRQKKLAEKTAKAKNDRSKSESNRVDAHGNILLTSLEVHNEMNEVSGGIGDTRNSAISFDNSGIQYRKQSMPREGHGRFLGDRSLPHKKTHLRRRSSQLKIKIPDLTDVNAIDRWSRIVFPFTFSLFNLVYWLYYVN
T2 sequence (P18507 40-475): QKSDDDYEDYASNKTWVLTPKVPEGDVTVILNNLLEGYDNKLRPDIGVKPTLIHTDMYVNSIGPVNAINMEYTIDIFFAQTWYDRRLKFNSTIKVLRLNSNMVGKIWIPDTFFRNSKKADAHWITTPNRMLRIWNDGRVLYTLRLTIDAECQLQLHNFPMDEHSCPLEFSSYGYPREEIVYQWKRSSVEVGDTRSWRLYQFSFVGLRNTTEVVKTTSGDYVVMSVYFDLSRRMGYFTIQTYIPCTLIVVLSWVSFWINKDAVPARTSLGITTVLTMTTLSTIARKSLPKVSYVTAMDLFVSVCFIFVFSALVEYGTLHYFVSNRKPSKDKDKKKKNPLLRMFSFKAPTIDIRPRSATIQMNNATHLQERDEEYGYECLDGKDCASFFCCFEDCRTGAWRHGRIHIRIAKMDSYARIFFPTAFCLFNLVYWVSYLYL
From the text: as §1, §2, §3, §4, §5, §6, §7

[3] = Liver microsomal stability, human; assay type: in vitro ADME; settings: 37° C., 4 μM compound, 30 minutes
Protocol: (§8) In vitro metabolism studies were done in mouse, rat, human, and dogs cells (TABLE 2).
(§9) In vitro liver microsomal studies were completed to measure the stability of the compounds against degradation in various species' liver microsomes.
(§10) Compound was incubated in hepatic microsomes over a 30-minute incubation period at 37° C. Incubations both with and without NADPH (2 mM) were performed in a 96-well plate format. The reaction was initiated with the addition of substrate and was terminated by protein precipitation. All incubations were performed using a final substrate concentration of 4 μM in 50 mM sodium phosphate buffer, pH 7.4. The final organic solvent content was 0.5% acetonitrile and 0.02% DMSO. The amount of enzyme present was fixed at 1.11 mg/mL protein irrespective of the species of microsomes used. Samples were analyzed by LC/MS-MS to determine the percent loss in the NAPDH incubations relative to the NADPH free incubations.

[4] = Liver microsomal stability, dog; assay type: in vitro ADME; settings: 37° C., 4 μM compound, 30 minutes
Protocol: as §8, §9, §10

[5] = Liver microsomal stability, mouse; assay type: in vitro ADME; settings: 37° C., 4 μM compound, 30 minutes
Protocol: as §8, §9, §10

[6] = Liver microsomal stability, rat; assay type: in vitro ADME; settings: 37° C., 4 μM compound, 30 minutes
Protocol: as §8, §9, §10

[7] = system: Male NIH Swiss mice; experiment: Rotorod assay (ataxia); assay type: in vivo; settings: 30 mg/kg i.p., 30 minutes prior, 4 r.p.m., two minutes
Protocol: Male NIH Swiss mice (n=10) were dosed i.p. with vehicle (1% carboxymethyl cellulose) or one of the test compounds (10 or 30 mg/kg) 30 minutes prior to being tested on the rotorod. Mice were placed on a rod for two minutes at 4 revolutions per minute. […] Mice that fell twice failed the testing.
The rotorod assay (FIG. 5) is used to determine the ataxic effects, generally stemming from the α1 subtype, that compounds have in test subjects. Mice are trained to run on a slow, rotating cylinder for two minutes, and failure to stay on the rod may be due to ataxia. […] Each set of compounds were tested against a vehicle.
Male NIH Swiss mice (n=10/group) were trained on a rotorod (Ugo Basile 7650) at 4 r.p.m. for two minutes per training session prior to testing. On test day, mice were dosed i.p. with either vehicle (1% carboxymethyl cellulose) or one of the test compounds (10 or 30 mg/kg) 30 minutes prior to testing.

[8] = system: Sprague Dawley male rats; experiment: Mechanical hyperalgesia (von Frey) in CFA-induced inflammatory pain rat model; assay type: in vivo
Protocol: Raw data (paw withdrawal threshold, expressed in g of von Frey filament) was converted to a maximal possible effect value according the following equation: % MPE=[(test threshold(g)−control threshold(g)/(pre-CFA threshold−control threshold)]×100.
Complete Freund's adjuvant (CFA) contains Mycobacterium butyricum, inducing inflammation and an increase in paw thickness. 0.1 mL of CFA was injected in the right hind paw of Sprague Dawley male rats under isoflurane anaesthesia.
Mechanical hyperalgesia. Mechanical hyperalgesia was measured 3 days after CFA treatment. Rats (n=6) were placed in elevated boxes with a mesh floor. Von Frey filaments (expressed in g) were applied perpendicularly to the hindpaws, starting with the lowest filament (1.4 g) then increased until hindpaw withdrawal was observed. After each measurement, rats received the next dose of drug (every 20 min) until the maximum threshold (26 g) was observed. For the antagonist study, rats were pretreated with the benzodiazepine site antagonist flumazenil (10 min) and then received the next dose of drug (every 20 min) until the pre-CFA threshold was observed.
Drugs. The following drugs were used: HZ166, KRM-II-18B, and KRM-II-81, and were dissolved in a mixture containing 20% Dimethyl sulfoxide (DMSO), 10% Emulphor-620 (Rhodia Inc.), and 70% of 0.9% saline. Flumazenil (purchased from Cayman Chemical Company, MI) was dissolved in a mixture containing 10% ethanol, 40% propylene glycol, and 50% sterile water. Midazolam (Akorn, Inc.) was dissolved in 0.9% saline. Doses were expressed as the weight of the drug in milligrams per kilogram of body weight and drugs were administered intraperitoneally.

[9] = system: Male Sprague-Dawley rats; experiment: von Frey filament test in spinal nerve ligated (SNL) rats; assay type: in vivo
Protocol: FIG. 11 is a graph of time versus withdrawal threshold for KRM-II-81, Gabapentin, and vehicle, showing the effect of KRM-II-81 on antihyperalgesia in the von Frey filament assay. Male Sprague-Dawley rats (n=5) were dosed i.p. either vehicle, KRM-II-81 (30 mg/kg), or gabapentin (50 mg/kg) and tested in the von Frey filament assay after undergoing SNL 90 days prior. Results were analyzed using ANOVA (Dunnett's test: *P<0.05).
The von Frey filament test is used to test for antihyperalgesia, or an increased sensitivity to pain. […] The von Frey filaments are used to apply pressure to the forelimbs of test subjects at set amounts. When pressure becomes too great, the forelimb is withdrawn and the amount of force applied recorded. The spinal nerve ligation induced hyperalgesia, reducing the amount of force a limb can take before being withdrawn.
Test compounds were given to test the effectiveness of combating the hyperalgesic effect of SNL. Male Sprague-Dawley rats went through SNL at least 90 days prior to the von Frey testing. Rats were first tested without given an injection to determine a baseline. Following baseline establishment, rats (n=5 for all groups) were dosed i.p. with vehicle (1% carboxymethyl cellulose), KRM-II-81 (30 mg/kg), or gabapentin (50 mg/kg). Subjects were then tested every hour for four hours to determine the antihyperalgesic effect of the test compounds. For testing, pressure using von Frey filaments was applied to the forelimb of the rat. Pressure was increased until the limb was withdrawn, and the amount of pressure was recorded.

T1 sequence (P14867 28-456): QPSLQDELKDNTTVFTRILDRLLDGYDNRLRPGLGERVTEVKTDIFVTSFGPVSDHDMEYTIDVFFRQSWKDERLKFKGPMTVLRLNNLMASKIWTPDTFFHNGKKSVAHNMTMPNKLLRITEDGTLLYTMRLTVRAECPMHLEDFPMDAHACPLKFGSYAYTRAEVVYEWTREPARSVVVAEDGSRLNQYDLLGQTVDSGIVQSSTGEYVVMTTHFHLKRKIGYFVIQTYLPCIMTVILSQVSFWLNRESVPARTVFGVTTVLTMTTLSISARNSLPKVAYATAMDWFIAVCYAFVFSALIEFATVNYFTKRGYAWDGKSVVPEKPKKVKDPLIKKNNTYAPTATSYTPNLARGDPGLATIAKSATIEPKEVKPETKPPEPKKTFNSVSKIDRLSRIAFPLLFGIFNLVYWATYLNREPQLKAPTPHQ
T1 sequence (P28472 26-473 partner): as the sequence (P28472 26-473 partner) above
T1 sequence (P18507 40-475): as the sequence (P18507 40-475) above

Cc1ncoc1-c1ncn2c1CN=C(c1ccccc1)c1cc(C#C[Si](C)(C)C)ccc1-2
melting point: 130 to 132 °C

C#Cc1ccc2c(c1)C(c1ccccn1)=NCc1c(-c3ocnc3C)ncn1-2
melting point: 209 to 211 °C

Cc1ncoc1-c1ncn2c1CN=C(c1ccccc1F)c1cc(C#C[Si](C)(C)C)ccc1-2
melting point: 209 to 211 °C

Cc1ncoc1-c1ncn2c1CN=C(c1ccccc1)c1cc(Br)ccc1-2
melting point: 236 to 238 °C

C#Cc1ccc2c(c1)C(c1ccccc1)=NCc1c(-c3cnco3)ncn1-2 [KRM-II-82, 5-(8-Ethynyl-6-phenyl-4H-benzo[f]imidazo[1,5-a][1,4]diazepin-3-yl)oxazole]
EC50 [1]: > 20000 nM | EC50 [2]: 32.1 nM | Human Liver microsome stability (reported in % remaining) [3]: 74 % remaining | Dog Liver microsome stability (reported in % remaining) [4]: 86 % remaining | Mouse Liver microsome stability (reported in % remaining) [5]: 73 % remaining | Rat Liver microsome stability (reported in % remaining) [6]: 72 % remaining | rotorod performance at 30 mg/kg [7]: failed multiple times

Cc1ncoc1-c1ncn2c1CN=C(c1ccccn1)c1cc(Br)ccc1-2
melting point: 228 to 230 °C

Cc1ncoc1-c1ncn2c1CN=C(c1ccccc1F)c1cc(Br)ccc1-2
melting point: 138 to 140 °C

Cc1ncc2n1-c1ccc(Cl)cc1C(c1ccccc1F)=NC2 [midazolam, reference compound]
mechanical hyperalgesia in CFA-induced inflammatory pain ([8]; cumulative i.p. dosing, 3 days after CFA): dose-dependently attenuated mechanical hyperalgesia

C#Cc1ccc2c(c1)C(c1ccccc1)=NCc1c(-c3ocnc3C)ncn1-2
melting point: 228 to 230 °C

Brc1ccc2c(c1)C(c1ccccc1)=NCc1c(-c3cnco3)ncn1-2
melting point: 225 to 227 °C

NCC1(CC(=O)O)CCCCC1 [gabapentin, reference compound]
antihyperalgesic activity, von Frey after SNL ([9]; KRM-II-81 30 mg/kg, gabapentin 50 mg/kg i.p.): active as antihyperalgesics | pain threshold (force before removing paw) ([9]; from 1-2 hours, vehicle ˜5 g): ~12 g

C[Si](C)(C)C#Cc1ccc2c(c1)C(c1ccccn1)=NCc1c(-c3cnco3)ncn1-2
melting point: 208 to 210 °C

CCOC(=O)c1ncn2c1CN(C)C(=O)c1cc(F)ccc1-2 [flumazenil, reference compound]
shift of PAM dose-effect curves by antagonist pretreatment ([8]; flumazenil pretreatment 10 min): shifted the dose-effect curves of PAMs rightward

Fc1ccccc1C1=NCc2c(-c3cnco3)ncn2-c2ccc(Br)cc21 [SH-I-085, 5-(8-Bromo-6-(2-fluorophenyl)-4H-benzo[f]imidazo[1,5-a][1,4]diazepin-3-yl)oxazole]
EC50 [1]: > 20000 nM | EC50 [2]: 24.9 nM | Human Liver microsome stability (reported in % remaining) [3]: 62 % remaining | Dog Liver microsome stability (reported in % remaining) [4]: 77 % remaining | Mouse Liver microsome stability (reported in % remaining) [5]: 67 % remaining | Rat Liver microsome stability (reported in % remaining) [6]: 61 % remaining | melting point: 190 to 192 °C

C#Cc1ccc2c(c1)C(c1ccccc1F)=NCc1c(-c3ocnc3C)ncn1-2
melting point: 145 to 147 °C

Reference: US10259815B2, “Gabaergic ligands and their uses” (UWM Research Foundation, Inc., priority 2015, dated 2019)
